In patent US10428081B2, “EGFR inhibitor, preparation method and use thereof” (Shanghai Hansoh Biomedical Co., Ltd., priority 2014, dated 2019):

Experiments:
[1] = molecular target: wild-type EGFR enzyme (Homo sapiens, UniProt P00533); assay: Enzymologic experiment of wild-type (WT) EGFR (TR-FRET); format: biochemical; settings: ATP 0.1 to 5 uM
Description: 2. Enzymologic Experiment of Wild-Type (WT) EGFR
In this experiment, the inhibitory effect of compounds on wild-type EGFR enzyme was tested by a fluorescence resonance energy transfer (TR-FRET) method, and the half maximal inhibitory concentration IC50 of the compounds on enzymatic activity was determined.
1) 1 to 5 μL of wild-type EGFR enzyme solution was added to a 384-well plate, and the final concentration of the enzyme was 0.1 to 1 nM.
(§1) 2) 1 to 5 μL of diluted solution in gradient of the compound was added.
(§2) 3) The mixture was incubated for 10 minutes at room temperature.
(§3) 6) 5 μL of EDTA stop solution was added to terminate the reaction for 5 minutes.
7) 5 μL of a test solution containing the labeled antibody was added, and the mixture was incubated at room temperature for 1 hour.
9) The inhibition rates were calculated from the fluorescence signal values.
(§4) 10) The IC50 of the compound was obtained by curve fitting according to the inhibition rates at different concentrations.

[2] = molecular target: exon 20 T790M mutant-type EGFR enzyme (Homo sapiens, UniProt P00533, T790M); assay: Enzymologic experiment of T790M mutant-type EGFR (TR-FRET); format: biochemical; settings: for IC50: T790M EGFR enzyme, TR-FRET, ATP 1 to 10 uM; for Selectivity of wild-type/mutant-type: ratio WT IC50 / T790M IC50, enzyme
Chain of exon 20 T790M mutant-type EGFR enzyme (P00533 25-1210 T790M): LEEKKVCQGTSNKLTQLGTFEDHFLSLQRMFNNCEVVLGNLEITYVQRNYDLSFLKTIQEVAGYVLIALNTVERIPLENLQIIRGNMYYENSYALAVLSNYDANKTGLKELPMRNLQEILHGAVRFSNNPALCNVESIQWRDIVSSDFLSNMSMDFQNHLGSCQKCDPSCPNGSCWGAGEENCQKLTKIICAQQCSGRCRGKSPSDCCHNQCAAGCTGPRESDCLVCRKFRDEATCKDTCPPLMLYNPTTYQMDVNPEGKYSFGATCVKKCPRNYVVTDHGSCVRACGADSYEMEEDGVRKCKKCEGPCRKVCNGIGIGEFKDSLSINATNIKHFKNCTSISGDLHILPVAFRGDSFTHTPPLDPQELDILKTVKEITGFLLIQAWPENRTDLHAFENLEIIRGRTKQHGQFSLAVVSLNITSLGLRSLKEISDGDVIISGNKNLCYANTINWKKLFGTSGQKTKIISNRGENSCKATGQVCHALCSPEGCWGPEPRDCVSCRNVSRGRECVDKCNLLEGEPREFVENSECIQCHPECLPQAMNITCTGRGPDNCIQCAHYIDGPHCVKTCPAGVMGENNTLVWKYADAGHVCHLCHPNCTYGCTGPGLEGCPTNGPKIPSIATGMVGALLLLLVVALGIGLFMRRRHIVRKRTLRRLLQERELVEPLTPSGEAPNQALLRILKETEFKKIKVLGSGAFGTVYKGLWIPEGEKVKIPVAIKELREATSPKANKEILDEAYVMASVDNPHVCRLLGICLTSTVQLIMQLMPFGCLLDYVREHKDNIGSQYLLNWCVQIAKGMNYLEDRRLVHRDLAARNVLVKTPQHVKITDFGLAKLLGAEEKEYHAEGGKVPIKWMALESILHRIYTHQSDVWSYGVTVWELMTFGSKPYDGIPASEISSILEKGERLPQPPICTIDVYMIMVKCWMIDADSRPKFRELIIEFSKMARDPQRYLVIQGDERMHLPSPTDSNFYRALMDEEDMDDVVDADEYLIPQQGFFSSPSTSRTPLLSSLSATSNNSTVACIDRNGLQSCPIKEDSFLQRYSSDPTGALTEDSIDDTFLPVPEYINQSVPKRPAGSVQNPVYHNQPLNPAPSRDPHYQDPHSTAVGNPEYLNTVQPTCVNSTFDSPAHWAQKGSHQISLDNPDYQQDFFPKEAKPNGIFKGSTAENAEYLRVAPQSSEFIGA
Description: as §1, §2, §3
7) […] of a test solution containing the labeled antibody was added, and the mixture was incubated at room temperature for 1 hour.
9) The inhibition rates were calculated according to the fluorescence signal values.
as §4

[3] = test system: NCI-H1975 cells; assay: Inhibition of NCI-H1975 cell proliferation (CellTiter-Glo); format: cell-based; settings: Homo sapiens, NCI-H1975, 72 h, NCI-H1975 cell proliferation, 72 hours, CellTiter-Glo; read-out: EGFR IC50 (nM) H1975
Description: 3. Experiment on the Inhibition of NCI-H1975 Cell Proliferation
In this experiment, the inhibitory effect of the compounds on NCI-H1975 cell proliferation was tested by a CellTiter-Glo method, and the half maximal inhibitory concentration (IC50) of the compounds on the activity of cell proliferation was determined.
The culture plate was incubated in an incubator for 16 to 24 hours (37° C., 5% CO2).
2) Different concentrations of the test compound in a gradient dilution were added to the cells in the culture plate. The culture plate was incubated in an incubator for 72 hours (37° C., 5% CO2).
3) 50 to 100 μL of CellTiter-Glo reagent was added to each well. Then, the culture plate was shaken for 10 minutes, and left to stand at room temperature for 10 minutes.
4) The chemiluminescence signal values of each plate were determined by a microplate reader.
5) The inhibition rates were calculated according to the chemiluminescence signal values.
6) The IC50 of the compound was obtained by curve fitting according to the inhibition rates at different concentrations.

Chain of wild-type EGFR enzyme (P00533 25-1210): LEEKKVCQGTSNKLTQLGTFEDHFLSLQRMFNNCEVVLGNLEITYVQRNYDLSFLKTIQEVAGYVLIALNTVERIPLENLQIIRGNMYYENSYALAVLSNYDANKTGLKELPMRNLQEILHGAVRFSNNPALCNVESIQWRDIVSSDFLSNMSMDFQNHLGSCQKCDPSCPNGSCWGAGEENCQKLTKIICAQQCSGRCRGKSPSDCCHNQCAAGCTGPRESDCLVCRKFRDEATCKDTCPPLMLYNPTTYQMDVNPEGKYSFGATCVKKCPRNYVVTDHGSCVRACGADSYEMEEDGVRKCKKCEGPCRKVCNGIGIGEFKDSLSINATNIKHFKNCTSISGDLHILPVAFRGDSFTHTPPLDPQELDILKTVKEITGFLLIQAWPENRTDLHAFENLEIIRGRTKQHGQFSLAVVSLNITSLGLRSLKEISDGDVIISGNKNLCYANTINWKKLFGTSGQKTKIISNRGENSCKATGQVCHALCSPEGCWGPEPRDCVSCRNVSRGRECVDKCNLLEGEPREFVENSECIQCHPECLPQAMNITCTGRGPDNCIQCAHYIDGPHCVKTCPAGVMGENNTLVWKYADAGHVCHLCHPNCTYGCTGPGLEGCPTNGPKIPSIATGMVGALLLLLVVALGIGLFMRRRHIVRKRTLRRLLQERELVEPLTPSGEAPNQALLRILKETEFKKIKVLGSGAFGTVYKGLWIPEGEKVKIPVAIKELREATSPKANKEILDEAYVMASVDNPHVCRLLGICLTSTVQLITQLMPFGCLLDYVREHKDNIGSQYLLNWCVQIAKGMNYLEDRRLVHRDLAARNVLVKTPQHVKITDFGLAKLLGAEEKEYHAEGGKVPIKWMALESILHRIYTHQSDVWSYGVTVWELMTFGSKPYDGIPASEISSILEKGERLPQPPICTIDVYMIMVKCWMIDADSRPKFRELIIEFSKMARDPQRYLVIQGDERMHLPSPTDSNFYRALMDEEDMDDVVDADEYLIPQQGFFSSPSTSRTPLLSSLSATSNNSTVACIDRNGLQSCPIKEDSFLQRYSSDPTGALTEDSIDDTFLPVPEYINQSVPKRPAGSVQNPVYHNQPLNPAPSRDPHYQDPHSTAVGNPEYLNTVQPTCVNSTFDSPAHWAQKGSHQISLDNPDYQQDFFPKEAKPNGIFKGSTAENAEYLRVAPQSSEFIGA

Row | IC50 [1] [nM] | IC50 [2] [nM] | Selectivity of wild-type/mutant-type [2] | IC50 [3] [nM] | SMILES
1 | 3.77 | 0.38 | 9.8 | – | C=CC(=O)Nc1cc(Nc2nccc(-n3ncc4cc(OC)ccc43)n2)c(OC)cc1N(C)CCN(C)C [Example 43, N-(2-((2-(dimethylamino)ethyl)(methyl)amino)-4-methoxy-5-((4-(5-methoxy-1H-indazol-1-yl)pyrimidin-2-yl)amino)phenyl)acrylamide]
2 | – | 50.2 | – | – | C=CC(=O)Nc1cc(Nc2nccc(-c3cn(C)c4ccccc34)n2)c(OC)cc1N1CC2(COC2)C1 [Example 27, N-(4-methoxy-5-((4-(1-methyl-1H-indol-3-yl)pyrimidin-2-yl)amino)-2-(2-oxa-6-azaspiro[3,3]heptan-6-yl)phenyl)acrylamide]
3 | 119 | 1.33 | 89.47 | – | C=CC(=O)Nc1cc(Nc2ncc(Cl)c(-n3nc(OC)c4cc(Cl)ccc43)n2)c(OC)cc1N(C)CCN(C)C [Example 108, N-(5-((5-chloro-4-(5-chloro-3-methoxy-1H-indazol-1-yl)pyrimidin-2-yl)amino)-2-((2-(dimethylamino)ethyl)(methyl)amino)-4-methoxyphenyl)acrylamide]
4 | 9.16 | 1.44 | 6.36 | 6.28 | C=CC(=O)Nc1cc(Nc2nccc(-n3cnc4ccc(OC)cc43)n2)c(OC)cc1N(C)CCN1CCCC1 [Example 139, N-(4-methoxy-5-((4-(6-methoxy-1H-benzo[d]imidazol-1-yl)pyrimidin-2-yl)amino)-2-(methyl(2-(pyrrolidin-1-yl)ethyl)amino)phenyl)acrylamide]
5 | 34.6 | 8.57 | 4.04 | 112 | C=CC(=O)Nc1cc(Nc2nccc(-c3cn(C)c4c(F)cc(F)cc34)n2)c(OC)cc1N(C)CCN(C)C [Example 89, N-(5-((4-(5,7-difluoro-1-methyl-1H-indol-3-yl)pyrimidin-2-yl)amino)-2-((2-(dimethylamino)ethyl)(methyl)amino)-4-methoxyphenyl)acrylamide]
6 | – | 28.1 | – | – | C=CC(=O)Nc1cc(Nc2nccc(-n3c(C)nc4cc(OC)ccc43)n2)c(OC)cc1N(C)CCN(C)C [Example 71, N-(2-((2-(dimethylamino)ethyl)(methyl)amino)-4-methoxy-5-((4-(5-methoxy-2-methyl-1H-benzo[d]imidazol-1-yl)pyrimidin-2-yl)amino)phenyl)acrylamide]
7 | 7.49 | 0.69 | 10.86 | 6.47 | C=CC(=O)Nc1cc(Nc2nccc(-n3ncc4cc(OCC)ccc43)n2)c(OC)cc1N(C)CCN1CCCC1 [Example 133]
8 | 190 | 4.18 | 45.43 | 30.8 | C=CC(=O)Nc1cc(Nc2nccc(-c3cn(C4CC4)c4ccccc34)n2)c(OC)cc1N(C)CCN1CCOCC1 [Example 124, N-(5-((4-(1-cyclopropyl-1H-indol-3-yl)pyrimidin-2-yl)amino)-4-methoxy-2-(methyl(2-morpholinoethyl)amino)phenyl)acrylamide]
9 | 2 | 0.15 | 13 | – | C=CC(=O)Nc1cc(Nc2nccc(-c3cn(C)c4ccccc34)n2)c(OC(F)F)cc1N(C)CCN(C)C [Example 1, N-(4-(difluoromethoxy)-2-((2-(dimethylamino)ethyl)(methyl)amino)-5-((4-(1-methyl-1H-indol-3-yl)pyrimidin-2-yl)amino)phenyl)acrylamide]
10 | 9.65 | 1.06 | 9.10 | – | C=CC(=O)Nc1cc(Nc2nccc(-n3nc(OC)c4cc(Cl)ccc43)n2)c(OC)cc1N(C)CCN(C)C [Example 110, N-(5-((4-(5-chloro-3-methoxy-1H-indazol-1-yl)pyrimidin-2-yl)amino)-2-((2-(dimethylamino)ethyl)(methyl)amino)-4-methoxyphenyl)acrylamide]
11 | 12 | 1.29 | 9.34 | 10.1 | C=CC(=O)Nc1cc(Nc2nccc(-n3nc(C)c4ccc(OC)cc43)n2)c(OC)cc1N(C)CCN1CCCC1 [Example 132, N-(4-methoxy-5-((4-(6-methoxy-3-methyl-1H-indazol-1-yl)pyrimidin-2-yl)amino)-2-(methyl(2-(pyrrolidin-1-yl)ethyl)amino)phenyl)acrylamide]
12 | – | 16.5 | – | – | C=CC(=O)Nc1cc(Nc2nccc(-c3cn(C)c4cc(F)cc(F)c34)n2)c(OC)cc1N(C)CCN(C)C [Example 29, N-(5-((4-(4,6-difluoro-1-methyl-1H-indol-3-yl)pyrimidin-2-yl)amino)-2-((2-(dimethylamino)ethyl)(methyl)amino)-4-methoxyphenyl)acrylamide]
13 | 6.01 | 0.32 | 18.7 | – | C=CC(=O)Nc1cc(Nc2nccc(-c3cn(C4CC4)c4ccccc34)n2)c(OC(F)F)cc1N(C)CCN(C)C [Example 12, N-(5-((4-(1-cyclopropyl-1H-indol-3-yl)pyrimidin-2-yl)amino)-4-(difluoromethoxy)-2-((2-(dimethylamino)ethyl)(methyl)amino)phenyl)acrylamide]
14 | 387 | 5.18 | 74.79 | – | C=CC(=O)Nc1cc(Nc2ncc(C(F)(F)F)c(-n3nc(OC)c4cc(Cl)ccc43)n2)c(OC)cc1N(C)CCN(C)C [Example 109, N-(5-((4-(5-chloro-3-methoxy-1H-indazol-1-yl)-5-(trifluoromethyl)pyrimidin-2-yl)amino)-2-((2-(dimethylamino)ethyl)(methyl)amino)-4-methoxyphenyl)acrylamide]
15 | – | 144 | – | – | C=CC(=O)Nc1cc(Nc2nccc(-c3cn(C)c4ccccc34)n2)c(OC(F)F)cc1N(C)CCN1CCOCC1=O [Example 3, N-(4-(difluoromethoxy)-2-(methyl(2-(3-carbonylmorpholino)ethyl)amino)-5-((4-(1-methyl-1H-indol-3-yl)pyrimidin-2-yl)amino)phenyl)acrylamide]
16 | – | 26 | – | – | C=CC(=O)Nc1cc(Nc2nccc(-n3c(C)nc4ccc(C#N)cc43)n2)c(OC)cc1N(C)CCN(C)C [Example 74, N-(5-((4-(6-cyano-2-methyl-1H-benzo[d]imidazol-1-yl)pyrimidin-2-yl)amino)-2-((2-(dimethylamino)ethyl)(methyl)amino)-4-methoxyphenyl)acrylamide]
17 | 4.44 | 0.35 | 12.7 | – | C=CC(=O)Nc1cc(Nc2nccc(-n3cnc4cc(OC)ccc43)n2)c(OC)cc1N(C)CCN(C)C [Example 59, N-(2-((2-(dimethylamino)ethyl)(methyl)amino)-4-methoxy-5-((4-(5-methoxy-1H-benzo[d]imidazol-1-yl)pyrimidin-2-yl)amino)phenyl)acrylamide]
18 | – | 41.4 | – | – | C=CC(=O)Nc1cc(Nc2nccc(-n3ncc4cc(C5CC5)ccc43)n2)c(OC)cc1N(C)CCN(C)C [Example 47, N-(5-((4-(5-cyclopropyl-1H-indazol-1-yl)pyrimidin-2-yl)amino)-2-((2-(dimethylamino)ethyl)(methyl)amino)-4-methoxyphenyl)acrylamide]
19 | – | 2.75 | – | 46.8 | C=CC(=O)Nc1cc(Nc2nccc(-c3cn(C)c4ccc(C5CC5)cc34)n2)c(OC)cc1N(C)CCN(C)C [Example 23, N-(5-((4-(5-cyclopropyl-1-methyl-1H-indol-3-yl)pyrimidin-2-yl)amino)-2-((2-(dimethylamino)ethyl)(methyl)amino)-4-methoxyphenyl)acrylamide]
20 | 19.6 | 0.8 | 24.45 | – | C=CC(=O)Nc1cc(Nc2ncc(Cl)c(-n3nc(CCC)c4cc(C#N)ccc43)n2)c(OC)cc1N(C)CCN(C)C [Example 116, N-(5-((5-chloro-4-(5-cyano-3-propyl-1H-indazol-1-yl)pyrimidin-2-yl)amino)-2-((2-(dimethylamino)ethyl)(methyl)amino)-4-methoxyphenyl)acrylamide]
21 | 191 | 0.99 | 193.03 | – | C=CC(=O)Nc1cc(Nc2ncc(C(F)(F)F)c(-n3cnc4ccc(OC)cc43)n2)c(OC)cc1N(C)CCN(C)C [Example 68, N-(2-((2-(dimethylamino)ethyl)(methyl)amino)-4-methoxy-5-((4-(6-methoxy-1H-benzo[d]imidazol-1-yl)-5-(trifluoromethyl)pyrimidin-2-yl)amino)phenyl)acrylamide]
